Measurements taken from the NIST ThermoML archive (doi:10.1021/je9005823).
± gives the expanded uncertainty stated by the source.

What was measured:
[1] = refractive index (Na D-line) (dimensionless); settings: 298.15 K; 101.33 kPa; Liquid
[2] = 298.15 K, 101 kPa, Liquid; for viscosity: Capillary tube (Ostwald / Ubbelohde) method
[3] = refractive index (Na D-line) (dimensionless); xn = mol fraction of the nth substance listed; settings: 298.15 K, 101 kPa, Liquid
[4] = xn = mol fraction of the nth substance listed; settings: 298.15 K, 101 kPa, Liquid; for viscosity: Capillary tube (Ostwald / Ubbelohde) method

CCCCCC(C)O (configuration not stated) [2-heptanol]
Settings	mass density [kg/m3]	refractive index	viscosity [mPa·s]
[1]	–	1.4188 ± 0.0007	–
[2]	813.33 ± 0.55	–	5.33 ± 0.039

CCCCCC(C)O (configuration not stated) [2-heptanol] + CC(=O)c1ccccc1
Settings	mass density, [4] [kg/m3]	refractive index, [3]	viscosity, [4] [mPa·s]
x2 = 0	813.33 ± 0.55	1.4188 ± 0.0007	5.33 ± 0.039
x2 = 0.0913	829.12 ± 0.53	1.4489 ± 0.0007	4.282 ± 0.032
x2 = 0.1631	841.87 ± 0.51	1.4748 ± 0.0007	3.572 ± 0.027
x2 = 0.2637	860.39 ± 0.49	1.5079 ± 0.0007	2.763 ± 0.021
x2 = 0.3425	875.43 ± 0.47	1.5298 ± 0.0007	2.296 ± 0.017
x2 = 0.4374	894.2 ± 0.45	1.5535 ± 0.0007	1.908 ± 0.015
x2 = 0.5387	915.07 ± 0.42	–	1.662 ± 0.013
x2 = 0.6446	937.92 ± 0.4	–	1.55 ± 0.012
x2 = 0.7571	963.35 ± 0.37	–	1.548 ± 0.012
x2 = 0.8733	991.14 ± 0.34	–	1.606 ± 0.012
x2 = 0.9542	1011.38 ± 0.35	1.5486 ± 0.0007	1.651 ± 0.013

CCCCC(C)O (configuration not stated) [2-hexanol]
Settings	mass density [kg/m3]	refractive index	viscosity [mPa·s]
[1]	–	1.4116 ± 0.0007	–
[2]	810.14 ± 0.55	–	4.1 ± 0.031

CCCCC(C)O (configuration not stated) [2-hexanol] + CC(=O)c1ccccc1
Settings	mass density, [4] [kg/m3]	refractive index, [3]	viscosity, [4] [mPa·s]
x2 = 0	810.14 ± 0.55	1.4116 ± 0.0007	4.1 ± 0.031
x2 = 0.0902	827.84 ± 0.53	1.4485 ± 0.0007	3.193 ± 0.024
x2 = 0.1678	843.27 ± 0.51	1.4782 ± 0.0007	2.658 ± 0.02
x2 = 0.2536	860.63 ± 0.49	1.5037 ± 0.0007	2.16 ± 0.017
x2 = 0.34	878.39 ± 0.47	1.5247 ± 0.0007	1.802 ± 0.014
x2 = 0.4382	898.86 ± 0.44	1.5425 ± 0.0007	1.506 ± 0.012
x2 = 0.5395	920.38 ± 0.42	–	1.344 ± 0.01
x2 = 0.6451	943.23 ± 0.39	–	1.273 ± 0.0099
x2 = 0.75	966.34 ± 0.36	–	1.313 ± 0.01
x2 = 0.8628	991.72 ± 0.34	1.5505 ± 0.0007	1.399 ± 0.011
x2 = 0.9511	1011.93 ± 0.35	1.5394 ± 0.0007	1.556 ± 0.012

CC(=O)c1ccccc1 [acetophenone]
Settings	mass density [kg/m3]	refractive index	viscosity [mPa·s]
[1]	–	1.5308 ± 0.0007	–
[2]	1023.3 ± 0.37	–	1.678 ± 0.013

CC(=O)c1ccccc1 [acetophenone] + CC(C)O
Settings	mass density, [4] [kg/m3]	refractive index, [3]	viscosity, [4] [mPa·s]
x1 = 0.0892	813.69 ± 0.55	1.3971 ± 0.0007	1.678 ± 0.013
x1 = 0.1658	839.2 ± 0.52	1.4181 ± 0.0007	1.503 ± 0.012
x1 = 0.2517	865.44 ± 0.49	1.4393 ± 0.0007	1.399 ± 0.011
x1 = 0.3432	890.91 ± 0.46	1.4601 ± 0.0007	1.354 ± 0.01
x1 = 0.4297	913.04 ± 0.43	1.4775 ± 0.0007	1.352 ± 0.01
x1 = 0.5345	937.56 ± 0.4	1.4953 ± 0.0007	1.367 ± 0.011
x1 = 0.6466	961.31 ± 0.37	1.5099 ± 0.0007	1.421 ± 0.011
x1 = 0.7561	982.35 ± 0.35	1.5195 ± 0.0007	1.484 ± 0.011
x1 = 0.8635	1001.26 ± 0.33	1.5255 ± 0.0007	1.556 ± 0.012
x1 = 0.9568	1016.5 ± 0.36	1.5276 ± 0.0007	1.626 ± 0.013
x1 = 1	1023.3 ± 0.37	1.5308 ± 0.0007	1.678 ± 0.013

CC(=O)c1ccccc1 [acetophenone] + CCC(C)O
Settings	mass density, [4] [kg/m3]	refractive index, [3]	viscosity, [4] [mPa·s]
x1 = 0.1031	830.43 ± 0.53	1.4255 ± 0.0007	2.345 ± 0.018
x1 = 0.1635	846.12 ± 0.51	1.4443 ± 0.0007	2.009 ± 0.015
x1 = 0.2517	868.13 ± 0.48	1.4669 ± 0.0007	1.705 ± 0.013
x1 = 0.3422	889.8 ± 0.46	1.4877 ± 0.0007	1.544 ± 0.012
x1 = 0.4361	911.31 ± 0.43	1.5044 ± 0.0007	1.461 ± 0.011
x1 = 0.533	932.56 ± 0.4	1.5189 ± 0.0007	1.46 ± 0.011
x1 = 0.6461	956.27 ± 0.38	1.5314 ± 0.0007	1.506 ± 0.012
x1 = 0.7517	977.34 ± 0.35	1.5367 ± 0.0007	1.562 ± 0.012
x1 = 0.8675	999.34 ± 0.33	1.5351 ± 0.0007	1.617 ± 0.013
x1 = 0.9462	1013.72 ± 0.35	1.5336 ± 0.0007	1.65 ± 0.013
x1 = 1	1023.3 ± 0.37	1.5308 ± 0.0007	1.678 ± 0.013

CC(=O)c1ccccc1 [acetophenone] + CCCC(C)O
Settings	mass density, [4] [kg/m3]	refractive index, [3]	viscosity, [4] [mPa·s]
x1 = 0.0917	826.19 ± 0.53	1.4627 ± 0.0007	2.767 ± 0.021
x1 = 0.1629	842.36 ± 0.51	1.4972 ± 0.0007	2.314 ± 0.018
x1 = 0.2502	862.04 ± 0.49	1.5257 ± 0.0007	1.875 ± 0.014
x1 = 0.3416	882.41 ± 0.46	1.5487 ± 0.0007	1.626 ± 0.013
x1 = 0.4371	903.49 ± 0.44	–	1.502 ± 0.012
x1 = 0.5387	925.71 ± 0.41	–	1.489 ± 0.011
x1 = 0.6442	948.51 ± 0.39	–	1.534 ± 0.012
x1 = 0.7547	972.08 ± 0.36	–	1.605 ± 0.012
x1 = 0.8716	996.7 ± 0.33	1.547 ± 0.0007	1.658 ± 0.013
x1 = 0.949	1012.77 ± 0.35	1.539 ± 0.0007	1.669 ± 0.013
x1 = 1	1023.3 ± 0.37	1.5308 ± 0.0007	1.678 ± 0.013

CC(=O)c1ccccc1 [acetophenone] + CCCCC(C)O
x1 = 1
Settings	mass density [kg/m3]	refractive index	viscosity [mPa·s]
[3]	–	1.5308 ± 0.0007	–
[4]	1023.3 ± 0.37	–	1.678 ± 0.013

CC(=O)c1ccccc1 [acetophenone] + CCCCCC(C)O
x1 = 1
Settings	mass density [kg/m3]	refractive index	viscosity [mPa·s]
[3]	–	1.5308 ± 0.0007	–
[4]	1023.3 ± 0.37	–	1.678 ± 0.013

CCC(C)O (configuration not stated) [butan-2-ol]
Settings	mass density [kg/m3]	refractive index	viscosity [mPa·s]
[1]	–	1.3946 ± 0.0007	–
[2]	802.56 ± 0.56	–	3.132 ± 0.024

CCC(C)O (configuration not stated) [butan-2-ol] + CC(=O)c1ccccc1
x2 = 0
Settings	mass density [kg/m3]	refractive index	viscosity [mPa·s]
[3]	–	1.3946 ± 0.0007	–
[4]	802.56 ± 0.56	–	3.132 ± 0.024

CCCC(C)O (configuration not stated) [pentan-2-ol]
Settings	mass density [kg/m3]	refractive index	viscosity [mPa·s]
[1]	–	1.4045 ± 0.0007	–
[2]	805.24 ± 0.56	–	3.478 ± 0.026

CCCC(C)O (configuration not stated) [pentan-2-ol] + CC(=O)c1ccccc1
x2 = 0
Settings	mass density [kg/m3]	refractive index	viscosity [mPa·s]
[3]	–	1.4045 ± 0.0007	–
[4]	805.24 ± 0.56	–	3.478 ± 0.026

CC(C)O [propan-2-ol]
Settings	mass density [kg/m3]	refractive index	viscosity [mPa·s]
[1]	–	1.3745 ± 0.0007	–
[2]	780.98 ± 0.59	–	2.044 ± 0.016

CC(C)O [propan-2-ol] + CC(=O)c1ccccc1
x2 = 0
Settings	mass density [kg/m3]	refractive index	viscosity [mPa·s]
[3]	–	1.3745 ± 0.0007	–
[4]	780.98 ± 0.59	–	2.044 ± 0.016
